Experimental findings from PubChem BioAssay AID1918944 (Molecular Pharmacology Branch, DTP, NCI, 2023) are described below.

As usually defined, the IC50 is the midpoint of a concentration-inhibition curve. What is called viability, T/C is the result in the treated group divided by that in the control group, in per cent.

Where “and” joins values, the source holds several entries; their conditions need not be identical. Identical values can stand only once. Calls of active or inactive are those of the source. The calls were made as follows: active = viability on the fitted dose curve at most 10% of control; inactive = the rest. Where only a bound is given, the exact number is not on record here.

The test has as its system 786-0 complex spheroid viability. The experiment in a line: Anticancer human tumor 786-0 cell line growth inhibition.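 As to all read-outs here: spheroids exposed to agents for seven days before readout.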 The conditions noted are these: for viability, T/C: stronger effect = lower value; for outcome: first compound 0.00949 µM. In a few lines: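 Multicellular complex spheroids of tumor cells with human endothelial cells (HUVEC) and mesenchymal stem cells; the LSD1 inhibitor iadademstat was combined with standard-of-care or investigational agents. Top concentration at or near clinical Cmax, half-log dilutions; final DMSO ≤0.25%.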

Turning to `Nc1ccn(C2OC(CO)C(O)C2(F)F)c(=O)n1` (stereo not drawn) + NC1CC1c1ccc(-c2cccc(O)c2)cc1, the IC50 is, setting by setting: (curve of first compound, second compound 0.1 µM) below 0.949 nM; (curve of first compound, second compound 0.316 µM) below 0.949 nM; (curve of first compound, second compound 1 µM) below 0.949 nM; (curve of first compound, second compound 3.16 µM) below 0.949 nM; (curve of first compound, second compound 10 µM) below 0.949 nM. Moreover, the viability, T/C reads like this: (second compound 0.1 µM, first compound 0.000949 µM) 10.3%; (second compound 0.1 µM, first compound 0.003 µM) 2.49%; (second compound 0.1 µM, first compound 0.03 µM) 2.95%; (second compound 0.1 µM, first compound 0.0949 µM) 3.87%; (second compound 0.1 µM, first compound 0.3 µM) 4.12%; (second compound 0.316 µM, first compound 0.000949 µM) 9.54%. The viability, T/C by setting is: (second compound 0.316 µM, first compound 0.003 µM) 2.66%; (second compound 0.316 µM, first compound 0.03 µM) 2.74%; (second compound 0.316 µM, first compound 0.0949 µM) 4.19%; (second compound 0.316 µM, first compound 0.3 µM) 3.51%; (second compound 1 µM, first compound 0.000949 µM) 7.42%; (second compound 1 µM, first compound 0.003 µM) 2.53%. For the same molecule, the viability, T/C is 2.64% (second compound 1 µM, first compound 0.03 µM); 3.23% (second compound 1 µM, first compound 0.0949 µM); 4% (second compound 1 µM, first compound 0.3 µM); 9.36% (second compound 3.16 µM, first compound 0.000949 µM); 2.32% (second compound 3.16 µM, first compound 0.003 µM); 2.75% (second compound 3.16 µM, first compound 0.03 µM). In addition, the viability, T/C (second compound 3.16 µM, first compound 0.0949 µM) was 3.87%; the viability, T/C (second compound 3.16 µM, first compound 0.3 µM) was 6.57%; the viability, T/C (second compound 10 µM, first compound 0.000949 µM) is 7.48%; the viability, T/C (second compound 10 µM, first compound 0.003 µM) is 3.61%; the viability, T/C (second compound 10 µM, first compound 0.03 µM) is 2.69%; the viability, T/C (second compound 10 µM, first compound 0.0949 µM) was 3.6%. The viability, T/C (second compound 10 µM, first compound 0.3 µM) is 4.45%. For the same molecule, the result (second compound 0.1 µM) was active; the outcome (second compound 0.316 µM) was active; the outcome (second compound 1 µM) was active; the outcome (second compound 3.16 µM) was active; the outcome (second compound 10 µM) was active.
Regarding `NC1CCC(NC2CC2c2ccccc2)CC1` (stereo not drawn), the viability, T/C reads like this: (compound 0.1 µM) 114% [middle of 25 runs]; (compound 0.316 µM) 113% and 132%; (compound 1 µM) 112% [middle of 25 runs]; (compound 3.16 µM) 106% [middle of 25 runs]; (compound 10 µM) 85.4% [middle of 23 runs]. Further, the IC50 (compound alone, run of 11/29/2021) was above 10000 nM.
Turning to `CC1COCCN1c1cc(-c2ccnn2C)c2ccnc(-c3ccn[nH]3)c2n1` (stereo not drawn), the viability, T/C by setting is: (compound 0.00316 µM) 101% and 93.8%; (compound 0.01 µM) 95.2% and 97.4%; (compound 0.0316 µM) 56.1% and 64.5%; (compound 0.1 µM) 23.4% and 27.1%; (compound 0.316 µM) 11.3% and 22.2%; (compound 1 µM) 12.7% and 18%. The half-inhibitory concentration (IC50) (curve of compound) is 40 nM and 49.3 nM.
